Reference: patent US7425556B2 (priority 2005, dated 2008)

Tests used:
[1] = target: T1, GABAA2 (human α2β3γ2 GABAA receptor) (Homo sapiens, UniProt P18507+P47869); assay: Two-electrode voltage-clamp in Xenopus oocytes, potentiation of GABA EC10 current, GABAA2; format: cell-based; conditions: percentage potentiation of GABA EC10 current divided by that of diazepam
T1 construct: expressed in transfected cells; host or cells: Xenopus laevis oocytes injected with capped cRNA
Source text: (§1) Presently available GABAA modulator anxiolytics work via interactions at the classical benzodiazepine binding site. To a large degree these anxiolytics lack GABAA receptor subtype-selectivity. The subtype-selective GABAA receptor modulators may offer more advantages. […] Sedation, a side-effect common to all marketed benzodiazepines, is believed to be mediated by interactions at GABAARs containing the α1 subunit. To develop anxiolytics with minimal liabilities due to interactions with other subunits, an electrophysiological assay was developed to screen modulatory effects of various compounds on different GABA subunit combinations heterologously expressed in Xenopus oocytes.
(§2) GABAA receptors were heterologously expressed in Xenopus oocytes by injecting cRNA corresponding to human α1, α2, α3, α5, β2, β3 and γ2 subunits of the GABAA receptor genes. The specific subunit combinations (subtypes) were as follows: α1β2γ2, α2β3γ2, α3β3γ2, and α5β3γ2. The EC10 of GABA was approximated for each cell. Stability of GABA-mediated (EC10) current was established. Modulatory effect of test compound was determined and compared across subtypes. […] Thus, the assay can characterize modulatory effects and determine subtype selectivity of test compounds on major subtypes of GABAA receptors.
(§3) Xenopus laevis frogs (Xenopus I, Kalamazoo, MI) were anesthetized using 0. […] Surgically removed ovarian lobes were teased out in OR2 solution (82 NaCl, 2.5 KCl, 5 HEPES, 1.5 NaH2PO4, 1 MgCl2, 0.1 EDTA, in mM, pH 7.4). The acolytes were deflocculated by incubation in 25 mL OR2 containing 0.2% collagens 1A (SIGMA) two times for about 60 minutes on a platform shaker and stored in Leibovitz's L-15 medium. Acolytes were injected the following day in 0.5× Leibovitz's L-15 medium containing […] gentamycin, 10 units/ml penicillin, and […] streptomycin.
(§4) Capped cRNAs from the linear zed vectors containing human α1, β2 and γ2 subunits of the GABAA receptor genes were mixed in ratio of […]. Acolytes were injected with 25-50 nL of mixed RNA with an appx molar ratio for α1, β2 and γ2 as 1:1:10. Acolyte recordings were done 2-10 days after injection. The same methods apply to subtypes derived from α2β3γ2, α3β3γ2, and α5β3γ2, except for 1:1:1 ratio was used for α, β, and γ subunits.
(§5) All measurements were done in a medium containing ND-96 (96 NaCl, 2 KCl, 1.8 CaCl2.2H2O, 1 MgCl2.6H2O, 5 HEPES, in mM, pH 7.5). Two-electrode voltage-clamp recording was carried out using Opus press amplifier (Axon Instruments, Foster City, Calif.), which allows simultaneous recording from 8 acolytes. Acolytes were impaled with two electrodes of 1-2 MΩ tip resistance when filled with 3M KCl. Recordings were begun when membrane potential became stable at potentials negative to −50-−60 mV. Membrane potential was held at −60 mV. […] The concentration of GABA corresponded to the EC10 value calculated for each acolyte. The modulator pulses started 30 s before the GABA pulse so as to allow preoccupation with the modulator. A set of 3 pulses with just GABA without modulator was given prior to the modulator-containing pulses to define the baseline GABA response. Two acolytes per each experiment were dedicated to observe the effect of diazepam on GABA response to ensure the presence of γ subunit in the GABAA pantomimic complex, which imparts diazepam sensitivity to the complex.
(§6) Current amplitude (i) was measured from baseline to peak using Clamp fit (Axon Inst., Foster City, Calif.). Potentiating was calculated as percent change from the baseline GABA current flux 100×(imod/icontrol)−1) where imod=current mediated by modulator+GABA and icontrol=current mediated by GABA alone. […] Similarly, a value of −50% potentiating means the presence of modulator caused a 50% decrease in the control current.

[2] = target: T2, GABAA2 receptors (α2, β3, γ2 receptor subunits) (Homo sapiens, UniProt P18507+P47869); assay: biochemical; conditions: [3H]-Flunitrazepam ~2 nM, α2β3γ2 Sf9 membranes, 1 hr at 4° C.; read-out: GABAA2 Binding Ki
T2 construct: host or cells: Sf9 cells (membranes)
Method: In some embodiments, the binding test was directed to a subtype of GABAA receptors, such as GABAA1 receptors (i.e., those containing the α1 subunit), GABAA2 receptors (i.e., those containing the α2 subunit), GABAA3 receptors (i.e., those containing the α3 subunit) and GABAA5 receptors (i.e., those containing the α5 subunit).
[formula] Method FF GABAA2 Binding Method Reagents
Assay and Wash Buffer: 50 mM Tris-Citrate, 200 mM NaCl, pH 7.8
Compounds at 10 mM in DMSO: Put 75 μl in column 1 of compound plate.
Flumazenil, 10 mM (for NSB)
[^3H]-Flunitrazepam (Cat #NET567): Prepare 10× stock=20 nM, [F} in assay=˜2 nM
1. […] Add 5 ul of 30 uM flumazenil to wells 12 D-E for 50% control wells.
2. Spot 2 μl of compound dilutions into dry plate (Automation Program 3). Manually spot 2 μl 10 mM flumazenil into wells 12 F-H for nonspecific control.
3. Make 1:100 dilution in assay buffer (2 μl into 200 μl) and dispense 25 μl compound into assay plates (Automation Program 4).
4. Dispense 200 μl membranes into assay plate (Automation Program 5).
5. Add 25 μl [^3H]-Flunitrazepam (Automation Program 6). Incubate for 1 hr at 4° C.
6. Collect membranes on a cell harvester onto GF/B filter plates (pre-wet with dH2O and wash 5×400 μl/well, with cold assay buffer. (First 3 washes are considered hot; last two are cold.)
7. Dry plates for 2-3 hours at RT.
8. Add 40 μl Microsecond 40/well (Automation Program 7); seal plates. Count on a Top Count.
Data is analyzed by calculating percent of control, IC50, and Kid in an Lift template. The following formula is used in the templates: […]

[3] = target: T3, GABAA1 (human α1β2γ2 GABAA receptor) (Homo sapiens, UniProt P14867+P18507); assay: Two-electrode voltage-clamp in Xenopus oocytes, potentiation of GABA EC10 current, GABAA1; format: cell-based; conditions: percentage potentiation of GABA EC10 current divided by that of diazepam
T3 construct: expressed in transfected cells; host or cells: Xenopus laevis oocytes injected with capped cRNA
Source text: as §1, §2, §3, §4, §5, §6

T3 sequence (P14867 28-456): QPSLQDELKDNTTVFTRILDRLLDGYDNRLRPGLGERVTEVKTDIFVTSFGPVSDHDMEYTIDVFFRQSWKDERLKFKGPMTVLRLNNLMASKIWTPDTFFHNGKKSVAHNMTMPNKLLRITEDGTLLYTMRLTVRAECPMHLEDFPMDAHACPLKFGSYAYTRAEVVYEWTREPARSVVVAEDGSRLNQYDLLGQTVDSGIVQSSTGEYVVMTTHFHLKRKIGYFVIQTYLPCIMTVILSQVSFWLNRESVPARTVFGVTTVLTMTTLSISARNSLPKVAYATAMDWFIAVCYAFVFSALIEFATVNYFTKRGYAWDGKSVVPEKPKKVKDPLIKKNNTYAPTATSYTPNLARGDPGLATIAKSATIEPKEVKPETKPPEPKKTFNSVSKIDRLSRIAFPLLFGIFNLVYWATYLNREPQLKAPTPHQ
T3 sequence (P47870 25-512 partner limits assumed): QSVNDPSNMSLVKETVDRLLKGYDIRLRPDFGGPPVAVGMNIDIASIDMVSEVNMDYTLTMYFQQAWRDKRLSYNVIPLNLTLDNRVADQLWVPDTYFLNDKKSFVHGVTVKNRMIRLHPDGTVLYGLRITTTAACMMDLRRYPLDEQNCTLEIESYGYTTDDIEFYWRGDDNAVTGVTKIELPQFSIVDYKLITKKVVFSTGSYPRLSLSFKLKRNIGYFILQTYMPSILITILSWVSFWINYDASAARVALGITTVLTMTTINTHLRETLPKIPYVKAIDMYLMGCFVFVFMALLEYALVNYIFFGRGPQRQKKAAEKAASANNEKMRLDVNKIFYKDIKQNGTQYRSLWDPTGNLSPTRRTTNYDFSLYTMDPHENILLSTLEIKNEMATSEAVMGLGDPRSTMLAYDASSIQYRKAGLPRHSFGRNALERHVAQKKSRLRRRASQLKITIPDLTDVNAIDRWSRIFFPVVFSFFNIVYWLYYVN
T3 sequence (P18507 40-475): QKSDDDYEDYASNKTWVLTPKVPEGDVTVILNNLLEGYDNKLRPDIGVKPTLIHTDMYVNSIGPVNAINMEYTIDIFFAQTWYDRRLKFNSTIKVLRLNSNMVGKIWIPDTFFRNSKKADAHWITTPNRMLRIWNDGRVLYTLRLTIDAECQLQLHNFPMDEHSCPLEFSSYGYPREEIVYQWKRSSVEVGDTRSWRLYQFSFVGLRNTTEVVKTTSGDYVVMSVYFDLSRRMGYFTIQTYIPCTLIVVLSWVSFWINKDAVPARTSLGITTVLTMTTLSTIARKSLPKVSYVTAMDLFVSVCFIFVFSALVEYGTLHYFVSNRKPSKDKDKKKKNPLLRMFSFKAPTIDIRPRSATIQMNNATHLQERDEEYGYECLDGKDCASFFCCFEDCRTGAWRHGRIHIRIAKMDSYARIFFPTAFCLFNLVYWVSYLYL
T1 sequence (P47869 29-451): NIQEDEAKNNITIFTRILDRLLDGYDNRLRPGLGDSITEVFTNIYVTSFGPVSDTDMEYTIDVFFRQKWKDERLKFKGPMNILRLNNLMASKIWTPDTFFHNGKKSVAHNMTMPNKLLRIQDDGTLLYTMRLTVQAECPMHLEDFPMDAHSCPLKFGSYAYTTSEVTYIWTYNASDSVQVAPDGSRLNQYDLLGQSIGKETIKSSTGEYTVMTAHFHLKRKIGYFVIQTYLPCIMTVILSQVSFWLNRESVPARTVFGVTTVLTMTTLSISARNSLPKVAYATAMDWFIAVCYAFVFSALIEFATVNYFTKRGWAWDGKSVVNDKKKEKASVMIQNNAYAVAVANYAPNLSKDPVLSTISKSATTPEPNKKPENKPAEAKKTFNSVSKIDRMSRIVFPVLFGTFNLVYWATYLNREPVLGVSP
T1 sequence (P28472 26-473 partner): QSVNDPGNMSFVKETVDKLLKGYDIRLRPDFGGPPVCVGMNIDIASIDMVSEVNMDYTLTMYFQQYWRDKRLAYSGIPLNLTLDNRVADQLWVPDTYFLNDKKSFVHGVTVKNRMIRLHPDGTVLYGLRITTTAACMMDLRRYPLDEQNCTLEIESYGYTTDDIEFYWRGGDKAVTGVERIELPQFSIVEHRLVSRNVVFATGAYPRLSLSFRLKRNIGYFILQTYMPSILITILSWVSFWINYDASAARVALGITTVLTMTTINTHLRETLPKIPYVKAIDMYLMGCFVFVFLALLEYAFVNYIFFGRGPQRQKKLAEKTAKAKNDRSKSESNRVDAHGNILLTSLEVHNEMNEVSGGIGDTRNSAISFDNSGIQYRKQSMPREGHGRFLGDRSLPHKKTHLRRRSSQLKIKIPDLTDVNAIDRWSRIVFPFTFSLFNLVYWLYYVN
T1 sequence (P18507 40-475): as the sequence (P18507 40-475) above
T2 sequence (P47869 29-451): as the sequence (P47869 29-451) above
T2 sequence (P28472 26-473 partner): as the sequence (P28472 26-473 partner) above
T2 sequence (P18507 40-475): as the sequence (P18507 40-475) above

| SMILES | Relative Potentiation for GABAA2 [1] | Ki [2] [nM] | Relative Potentiation for GABAA1 [3] |
| --- | --- | --- | --- |
| CCCNC(=O)c1nnc2c(-c3ccc(C)nc3)cccc2c1N | 0.14 | 4.11 | −0.16 |
| CCCNC(=O)c1nnc2c(-c3ccc(OC)c(F)c3)c(F)ccc2c1N | 0.16 | 2.88 | 0.1 |
| CCCNC(=O)c1nnc2c(-c3ccc(OC)cc3OC)cccc2c1N | 0.15 | 2.5 | 0.18 |
| CCCNC(=O)c1nnc2c(-c3cc(OC)ccc3Cl)c(F)ccc2c1N | 0.19 | 1.25 | 0.14 |
| CCCNC(=O)c1nnc2c(-c3cnc(OC)c(F)c3)cccc2c1N | 0.14 | 22.1 | −0.012 |
| CCCNC(=O)c1nnc2c(-c3cccc(OC)c3)cccc2c1N | 0.22 | 4.34 | 0.13 |
| CCCNC(=O)c1nnc2c(-c3ccc(OC)cc3F)cccc2c1N | 0.12 | 4.17 | 0 |
| CCCNC(=O)c1nnc2c(-c3cc(F)ccc3OC)c(F)ccc2c1N | 0.22 | 0.98 | 0.085 |
| CCCNC(=O)c1nnc2c(-c3cccc(Cl)c3)cccc2c1N | 0.53 | 12.3 | 0.18 |
| CCCNC(=O)c1nnc2c(-c3ccc(OC)cc3F)c(F)ccc2c1N | 0.18 | 0.613 | 0.053 |
| CCCNC(=O)c1nnc2c(-c3ccc(OC)c(F)c3)cccc2c1N | 0.19 | 20.2 | 0.03 |
| CCCCNC(=O)c1nnc2c(-c3cnccc3OC)cccc2c1N | 0.52 | 1.84 | 0.2 |
| CCCNC(=O)c1nnc2c(-c3ccc(OC)c(OC)c3)cccc2c1N | 0.28 | 3.88 | 0.33 |
| CCCNC(=O)c1nnc2c(-c3cc(F)ccc3F)c(F)ccc2c1N | 0.098 | 45.8 | 0.013 |
| CCCNC(=O)c1nnc2c(-c3cncc(C(=O)N4CCC4)c3)cccc2c1N | −0.033 | 2.34 | −0.11 |
| CCCNC(=O)c1nnc2c(-c3cc(C(F)(F)F)cc(C(F)(F)F)c3)cccc2c1N | 0.13 | 356 | 0.44 |
| CCCNC(=O)c1nnc2c(-c3cccc(C#N)c3)cccc2c1N | 0.31 | 1.18 | 0.088 |
| CCCNC(=O)c1nnc2c(-c3ccc(OC)c(C)c3)cccc2c1N | 0.27 | 17.6 | 0.21 |

| SMILES | Relative Potentiation for GABAA2 [1] | Ki [2] [nM] | Relative Potentiation for GABAA1 [3] |
| --- | --- | --- | --- |
| CCCNC(=O)c1nnc2c(-c3cccnc3)cccc2c1N | 0.054 | 2.6 | −0.11 |
| CCCNC(=O)c1nnc2c(-c3ccc(OC)cc3)cccc2c1N | 0.06 | 15.4 | −0.11 |
| CCNC(=O)c1nnc2c(-c3cnc(OC)nc3OC)cccc2c1N | 0.35 | 14.4 | 0.005 |
| CCCNC(=O)c1nnc2c(-c3cc(F)ccc3OC)cccc2c1N | 0.4 | 10.5 | 0.026 |
| CCCNC(=O)c1nnc2c(-c3ccc(N(C)C)cc3)cccc2c1N | 0.18 | 26.6 | 0.07 |
| CCCNC(=O)c1nnc2c(-c3cnc(OC)nc3)cccc2c1N | 0.11 | 19.5 | −0.066 |
| CCCNC(=O)c1nnc2c(-c3cccc(F)c3OC)cccc2c1N | 0.11 | 10.9 | 0.11 |
| CCCNC(=O)c1nnc2c(-c3cnc4ccccc4c3)cccc2c1N | 0.11 | 12.3 | −0.15 |
| CCCNC(=O)c1nnc2c(-c3cc(C)ccc3OC)c(F)ccc2c1N | 0.37 | 0.937 | 0.23 |
| CCCNC(=O)c1nnc2c(-c3ccncc3)cccc2c1N | 0.1 | 1.67 | −0.038 |
| CCCNC(=O)c1nnc2c(-c3cc(C(F)(F)F)ccc3Cl)cccc2c1N | 0.59 | 1.36 | 0.47 |
| CCCNC(=O)c1nnc2c(-c3ccccc3C(F)(F)F)cccc2c1N | 0.063 | 0.364 | 0.12 |
| CCCNC(=O)c1nnc2c(-c3ccc(F)c(-c4ccc(F)cc4C#N)c3)cccc2c1N | 0.023 | 150 | 0.09 |
| CCCNC(=O)c1nnc2c(-c3cc(Cl)ccc3Cl)cccc2c1N | 0.21 | 0.71 | 0.12 |
| CCCNC(=O)c1nnc2c(-c3cccc(C(=O)O)c3)cccc2c1N | 0.08 | 53.8 | −0.038 |
| CCCNC(=O)c1nnc2c(-c3cccnc3F)cccc2c1N | 0.17 | 1.13 | −0.083 |
| CCCNC(=O)c1nnc2c(-c3cccc(OC)c3F)cccc2c1N | 0.26 | 3.41 | 0.045 |
| CCCNC(=O)c1nnc2c(-c3ccc(C)cc3)cccc2c1N | 0.11 | 29 | 0.013 |
